target: Endothelial lipase (EL) (Homo sapiens (Human), UniProt Q9Y5X9); assay: Endothelial lipase (EL) enzymatic assay with fluorescent substrate A10070 in DMPG vesicles; type: biochemical
Experimental: Endothelial lipase (EL) and hepatic lipase (HL) activities were measured using a fluorescent substrate, A10070, (Invitrogen, CA) doped into an artificial vesicle containing DMPG (Avanti Polar Lipids) as the excipient. Vesicles were prepared by combining 571 μL of 29 mM DMPG in a 1:1 mixture of MeOH and CHCl3 with 2000 μL of 1 mM A10070 in a 1:1 mixture of MeOH and CHCl3. The mixture was dried under nitrogen in multiple vials then resuspended in 20 mL total volume of 50 mM HEPES pH 8.0 buffer containing 50 mM NaCl and 0.2 mM EDTA. The sample was allowed to sit at room temperature for 15 min and then was sonicated 3×4 mins on ice with a Branson Sonicator using duty cycle 1. This preparation provides vesicles with a mole fraction of 0.11 for the FRET substrate.
The enzymatic assay was measured using 384-well white Optiplates. Each well contained 20 μL of assay buffer (50 mM HEPES pH 8.0, 50 mM NaCl and 1 mM CaCl2) and 0.25 μL of a DMSO solution containing a compound of interest. EL or HL (10 μL) was added and allowed to incubate with the compound for 30 min at 37° C. The source of EL was conditioned media obtained from HT-1080 cells that were transformed using RAGE technology (Athersys) to overexpress endogenous EL, and HL was partially purified from conditioned media obtained from COS cells overexpressing HL. The reaction was started by the addition of 10 μL of a 1:10 dilution of vesicles. The final total reaction volume was […]. The reaction rates were measured on a Gemini plate reader with an excitation wavelength of 490 nm and an emission wavelength of 530 nm. Readings were taken over a period of 60 minutes, and the slope between 300 and 900 secs of the readout was used to calculate the rate of the reaction.

Chain of Endothelial lipase (EL) (Q9Y5X9 21-500): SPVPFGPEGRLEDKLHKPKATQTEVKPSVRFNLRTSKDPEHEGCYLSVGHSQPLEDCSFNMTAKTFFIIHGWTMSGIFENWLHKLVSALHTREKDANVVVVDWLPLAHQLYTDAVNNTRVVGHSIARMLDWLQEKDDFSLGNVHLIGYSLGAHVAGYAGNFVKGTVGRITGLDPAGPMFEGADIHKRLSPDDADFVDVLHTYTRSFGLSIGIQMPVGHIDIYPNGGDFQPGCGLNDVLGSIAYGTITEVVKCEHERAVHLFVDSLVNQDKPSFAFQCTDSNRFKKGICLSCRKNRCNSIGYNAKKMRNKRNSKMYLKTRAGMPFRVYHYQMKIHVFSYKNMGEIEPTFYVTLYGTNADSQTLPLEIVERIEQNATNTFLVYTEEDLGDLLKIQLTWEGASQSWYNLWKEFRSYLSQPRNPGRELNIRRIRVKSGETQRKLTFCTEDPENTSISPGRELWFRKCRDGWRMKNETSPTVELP

Row | SMILES | IC50
1 | COCCS(=O)(=O)C(C(=O)NCC(=O)NC1CC1)c1nc2cc(-c3ccn(C)c(=O)c3)c(F)cc2s1 (stereo not shown) [Example 342, N-[(cyclopropyl-carbamoyl)methyl]-2-[6-fluoro-5-(1-methyl-2-oxo-1,2-dihydropyridin-4-yl)-1,3-benzothiazol-2-yl]-2-(2-methoxyethane-sulfonyl)acetamide] | 23 nM
2 | COCCS(=O)(=O)C(C(=O)NCC(=O)NC1CC1)c1nc2cc(C(F)(F)F)c(-c3cnnc(C)c3)cc2s1 (stereo not shown) [Example 187, N-[(cyclopropyl-carbamoyl)methyl]-2-(2-methoxyethane-sulfonyl)-2-[6-(6-methylpyridazin-4-yl)-5-(trifluoromethyl)-1,3-benzothiazol-2-yl]acetamide] | 229 nM
3 | COCCS(=O)(=O)C(C(=O)NCC(=O)NC1CC1)c1nc2cc(-c3ccc(Cl)cn3)ccc2s1 (stereo not shown) [Example 83, 2-[5-(5-chloropyridin-2-yl)-1,3-benzothiazol-2-yl]-N-[(cyclopropyl-carbamoyl)methyl]-2-(2-methoxyethane-sulfonyl)acetamide] | 71 nM
4 | COCCS(=O)(=O)C(C(=O)NCC(=O)NC1(C)CCC1)c1nc2cc(-c3ccc(F)nc3)ccc2s1 (stereo not shown) [Example 387, 2-[5-(6-fluoropyridin-3-yl)-1,3-benzothiazol-2-yl]-2-(2-methoxyethane-sulfonyl)-N-{[(1-methylcyclobutyl)carbamoyl]methyl} acetamide] | 28 nM
5 | CCOc1ncccc1-c1ccc2nc(C(C(=O)NCC(=O)NC3CC3)S(=O)(=O)CCOC)sc2c1 (stereo not shown) [Example 293, N-[(cyclopropyl-carbamoyl)methyl]-2-[6-(2-ethoxypyridin-3-yl)-1,3-benzothiazol-2-yl]-2-(2-methoxyethane-sulfonyl)acetamide] | 33 nM
6 | Cc1cc(-c2cc3sc(C(C(=O)NCC(=O)NC4CC4)S(C)(=O)=O)nc3cc2OC(F)F)cnn1 (stereo not shown) [Example 604, N-[(cyclopropyl-carbamoyl)methyl]-2-[5-(difluoromethoxy)-6-(6-methylpyridazin-4-yl)-1,3-benzothiazol-2-yl]-2-methanesulfonyl-acetamide] | 27 nM
7 | COCCS(=O)(=O)C(C(=O)NCC(=O)NC1CC1)c1nc2cc(Cl)c(-c3cncnc3)cc2s1 (stereo not shown) [Example 112, 2-[5-chloro-6-(pyrimidin-5-yl)-1,3-benzothiazol-2-yl]-N-[(cyclopropyl-carbamoyl)methyl]-2-(2-methoxyethane-sulfonyl)acetamide] | 97 nM
8 | COCCS(=O)(=O)C(C(=O)NCC(=O)NC1CC1)c1nc2cc(Cl)c(-c3ccc(F)nc3)cc2s1 (stereo not shown) [Example 105, 2-[5-chloro-6-(6-fluoropyridin-3-yl)-1,3-benzothiazol-2-yl]-N-[(cyclopropyl-carbamoyl)methyl]-2-(2-methoxyethane-sulfonyl)acetamide] | 28 nM
9 | COCCS(=O)(=O)C(C(=O)NCC(=O)NC1CC1)c1nc2cc(F)c(-c3ccccc3NC(=O)OC)cc2s1 (stereo not shown) [Example 537, methyl N-{2-[2-({[(cyclopropyl-carbamoyl)methyl]carbamoyl}(2-methoxyethane-sulfonyl)methyl)-5-fluoro-1,3-benzothiazol-6-yl]phenyl} carbamate] | 92 nM
10 | O=C(CNC(=O)C(c1nc2ccc(-c3ccc(F)nc3)cc2s1)S(=O)(=O)Cc1ccc(F)cc1)NC1CC1 (stereo not shown) [Example 515, N-[(cyclopropyl-carbamoyl)methyl]-2-[(4-fluorophenyl)methanesulfonyl]-2-[6-(6-fluoropyridin-3-yl)-1,3-benzothiazol-2-yl]acetamide] | 48 nM
11 | COCCS(=O)(=O)C(C(=O)NCC(=O)NC1CC1)c1nc2cc(-c3ccc(NC(C)=O)cc3)ccc2s1 (stereo not shown) [Example 106, N-[(cyclopropyl-carbamoyl)methyl]-2-[5-(4-acetamidophenyl)-1,3-benzothiazol-2-yl]-2-(2-methoxyethane-sulfonyl)acetamide] | 30 nM

Now those with a lower IC50, led by results:

Row | IC50 | SMILES
12 | 5 nM | COC(=O)Nc1cccc(-c2cc3nc(C(C(=O)NCC(=O)NC4CC4)S(C)(=O)=O)sc3cc2F)c1 (stereo not shown) [Example 123, methyl N-{3-[2-({[(cyclopropyl-carbamoyl)methyl]carbamoyl} (methanesulfonyl)methyl)-6-fluoro-1,3-benzothiazol-5-yl]phenyl} carbamate]
13 | 16 nM | COCCS(=O)(=O)C(C(=O)NCC(=O)NC1CC1)c1nc2cc(C)c(-c3cnc(C4CC4)nc3)cc2s1 (stereo not shown) [Example 163, N-[(cyclopropyl-carbamoyl)methyl]-2-[6-(2-cyclopropyl-pyrimidin-5-yl)-5-methyl-1,3-benzothiazol-2-yl]-2-(2-methoxyethane-sulfonyl) acetamide]
14 | 15 nM | CS(=O)(=O)C(C(=O)NCC(=O)NC1CC1)c1nc2cc(F)c(-c3ccnc(C(F)(F)F)c3)cc2s1 (stereo not shown) [Example 325, N-[(cyclopropyl-carbamoyl)methyl]-2-{5-fluoro-6-[2-(trifluoromethyl)pyridin-4-yl]-1,3-benzothiazol-2-yl}-2-methanesulfonyl-acetamide]
15 | 1 nM | N#Cc1cccc(COC(=O)Nc2ccc(-c3cc4sc(C(C(=O)NCC(=O)NC5CC5)S(=O)(=O)CCC(F)(F)F)nc4cc3F)cc2)c1 (stereo not shown) [Example 522, (3-cyanophenyl) methyl N-{4-[2-({[(cyclopropyl-carbamoyl)methyl]carbamoyl}(3,3,3-trifluoropropane-sulfonyl)methyl)-5-fluoro-1,3-benzothiazol-6-yl]phenyl} carbamate]
16 | 7 nM | CN(C)S(=O)(=O)C(C(=O)NCC(=O)NC1CC1)c1nc2ccc(-c3ccc(F)nc3)cc2s1 (stereo not shown) [Example 484, N-[(cyclopropyl-carbamoyl)methyl]-2-(dimethyl-sulfamoyl)-2-[6-(6-fluoropyridin-3-yl)-1,3-benzothiazol-2-yl]acetamide]
17 | 3 nM | O=C(CNC(=O)C(c1nc2cc(F)c(-c3ccc(NC(=O)OCc4ccccc4)cc3)cc2s1)S(=O)(=O)CC1CC1)NC1CC1 (stereo not shown) [Example 51, benzyl N-{4-[2-({[(cyclopropyl-carbamoyl)methyl]carbamoyl} (cyclopropyl-methanesulfonyl)methyl)-5-fluoro-1,3-benzothiazol-6-yl]phenyl} carbamate]
18 | 1 nM | COCCS(=O)(=O)C(C(=O)NCC(=O)NCCOCc1ccccc1)c1nc2ccc(-c3ccc(F)nc3)cc2s1 (stereo not shown) [Example 377, N-({[2-(benzyloxy)ethyl]carbamoyl}methyl)-2-[6-(6-fluoropyridin-3-yl)-1,3-benzothiazol-2-yl]-2-(2-methoxyethane-sulfonyl)acetamide]
19 | 3 nM | COCCS(=O)(=O)C(C(=O)NCC(=O)NC1CC1)c1nc2cc(F)c(-c3ccc4c(cnn4C)c3)cc2s1 (stereo not shown) [Example 152, N-[(cyclopropyl-carbamoyl)methyl]-2-[5-fluoro-6-(1-methyl-1H-indazol-5-yl)-1,3-methoxyethane-sulfonyl) acetamide]
20 | 2 nM | COCCS(=O)(=O)C(C(=O)NCC(=O)NC1CC1)c1nc2cc(F)c(-c3cccc(-n4cccn4)c3)cc2s1 (stereo not shown) [Example 141, N-[(cyclopropyl-carbamoyl)methyl]-2-{5-fluoro-6-[3-(1H-pyrazol-1-yl)phenyl]-1,3-benzothiazol-2-yl}-2-(2-methoxyethane-sulfonyl) acetamide]
21 | 4 nM | COC(=O)Nc1ccc(-c2cc3sc(C(C(=O)NCC(=O)NC4CC4)S(C)(=O)=O)nc3cc2F)cc1 (stereo not shown) [Example 120, methyl N-{4-[2-({[(cyclopropyl-carbamoyl)methyl]carbamoyl} (methanesulfonyl)methyl)-5-fluoro-1,3-benzothiazol-6-yl]phenyl} carbamate]
22 | 14 nM | Cc1ccn(-c2cccc(-c3ccc4nc(C(C(=O)NCC(=O)NC5CC5)S(C)(=O)=O)sc4c3)n2)n1 (stereo not shown) [Example 412, N-[(cyclopropyl-carbamoyl)methyl]-2-methanesulfonyl-2-{6-[6-(3-methyl-1H-pyrazol-1-yl)pyridin-2-yl]-1,3-benzothiazol-2-yl}acetamide]
23 | 2 nM | CN(C)S(=O)(=O)C(C(=O)NCC(=O)NC1CC1)c1nc2c(F)cc(-c3ccc(NC(=O)OCc4ccccc4)cc3)cc2s1 (stereo not shown) [Example 495, benzyl N-{4-[2-({[(cyclopropyl-carbamoyl)methyl]carbamoyl} (dimethyl-sulfamoyl)methyl)-4-fluoro-1,3-benzothiazol-6-yl]phenyl}carbamate]
24 | 1 nM | Cn1ncc2ccc(-c3cc4sc(C(C(=O)NCC(=O)NC5CC5)S(C)(=O)=O)nc4cc3F)cc21 (stereo not shown) [Example 196, N-[(cyclopropyl-carbamoyl)methyl]-2-[5-fluoro-6-(1-methyl-1H-indazol-6-yl)-1,3-benzothiazol-2-yl]-2-methanesulfonyl-acetamide]
25 | 15 nM | O=C(CNC(=O)C(c1nc2cc(-c3ccc(F)nc3)ccc2s1)S(=O)(=O)Cc1ccc(F)cc1)NC1CC1 (stereo not shown) [Example 13, N-[(cyclopropyl-carbamoyl)methyl]-2-[(4-fluorophenyl)methanesulfonyl]-2-[5-(6-fluoropyridin-3-yl)-1,3-benzothiazol-2-yl]acetamide]

From patent publication US10173991B2, “Sulfone amide linked benzothiazole inhibitors of endothelial lipase” (BRISTOL-MYERS SQUIBB COMPANY, priority 2014, dated 2019)
